Laboratory results from publication PMC7419506, “KN3014, a piperidine-containing small compound, inhibits auto-secretion of IL-1β from PBMCs in a patient with Muckle–Wells syndrome” (Scientific Reports, 2020).

Biological target: T1, ASC (Homo sapiens, UniProt Q96P20+Q9ULZ3)
T1 construct: gene PYCARD; FLAG-ASC-PYD (N-terminal FLAG-tagged pyrin domain of ASC); with NLRP3 (NLRP3-FL-Btn, C-terminal biotinylated full-length)
Test: ALPHA-screen protein-protein interaction inhibition, wheat germ cell-free synthesized proteins
Format: binding
From the text: ALPHA-screen protein-protein interaction inhibition, wheat germ cell-free synthesized proteins on ASC | The interaction between NLRP3-FL-Btn and FLAG-ASC-PYD was disrupted by both KN3014 and KN8311 in a dose-dependent manner.

T1 sequence (Q9ULZ3 1-91 limits assumed): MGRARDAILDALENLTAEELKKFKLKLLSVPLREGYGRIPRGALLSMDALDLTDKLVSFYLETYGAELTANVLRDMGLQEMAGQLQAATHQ
T1 sequence (Q96P20 whole entry, the tested form may be a part): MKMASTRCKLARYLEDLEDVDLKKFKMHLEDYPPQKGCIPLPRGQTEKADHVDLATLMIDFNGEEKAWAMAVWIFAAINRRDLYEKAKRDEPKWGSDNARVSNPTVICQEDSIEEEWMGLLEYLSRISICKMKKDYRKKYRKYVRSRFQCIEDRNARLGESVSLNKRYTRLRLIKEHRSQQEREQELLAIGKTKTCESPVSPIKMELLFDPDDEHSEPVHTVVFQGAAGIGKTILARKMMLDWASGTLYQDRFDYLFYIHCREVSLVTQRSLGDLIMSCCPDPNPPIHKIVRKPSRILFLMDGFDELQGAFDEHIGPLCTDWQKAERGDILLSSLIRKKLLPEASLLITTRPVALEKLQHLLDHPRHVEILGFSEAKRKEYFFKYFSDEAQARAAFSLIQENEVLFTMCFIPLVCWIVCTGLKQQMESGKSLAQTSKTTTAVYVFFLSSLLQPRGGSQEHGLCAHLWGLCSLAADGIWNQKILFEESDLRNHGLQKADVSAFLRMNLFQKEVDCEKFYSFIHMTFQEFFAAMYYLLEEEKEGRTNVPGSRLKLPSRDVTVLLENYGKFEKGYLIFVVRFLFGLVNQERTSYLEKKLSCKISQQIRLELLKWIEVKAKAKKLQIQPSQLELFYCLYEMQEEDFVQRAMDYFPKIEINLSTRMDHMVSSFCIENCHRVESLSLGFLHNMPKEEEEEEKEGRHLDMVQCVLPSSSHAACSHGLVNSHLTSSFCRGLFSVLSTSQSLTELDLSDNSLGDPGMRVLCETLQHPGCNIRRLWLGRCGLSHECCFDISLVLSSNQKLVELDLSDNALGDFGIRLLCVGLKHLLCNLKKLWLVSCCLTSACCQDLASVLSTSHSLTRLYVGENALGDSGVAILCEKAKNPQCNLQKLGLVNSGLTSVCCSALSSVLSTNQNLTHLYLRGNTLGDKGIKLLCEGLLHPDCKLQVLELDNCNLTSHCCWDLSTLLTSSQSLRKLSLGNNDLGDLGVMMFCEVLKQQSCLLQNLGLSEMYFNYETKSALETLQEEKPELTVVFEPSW

IC50: 14.6 µM
Structure (SMILES): Cc1ccccc1OCC(=O)NCC(c1ccc2c(c1)CCCN2C)N1CCCCC1 (stereo not shown) [KN3014, N-(2-(1-methyl-1,2,3,4-tetrahydroquinolin-6-yl)-2-(piperidin-1-yl)ethyl)-2-(o-tolyloxy)acetamide]
